# Measurements as given in PMC5936909, “Identification of potent chromone embedded [1,2,3]-triazoles as novel anti-tubercular agents” (Royal Society Open Science, 2018).
# Read-outs that look alike come from different tables or passages of the source.
# Assays:
# [1] = tested on: Mycobacterium tuberculosis H37Rv (ATCC27294); assay: in vitro anti-tubercular activity, MABA assay; format: cell-based
# RAW 264.7 cells = assay: in vitro cytotoxicity, MTT assay; settings: at 50 µg ml^−1, RAW 264.7 cells
# [2] = M. tuberculosis H37Rv, MABA, lowest concentration with complete inhibition of growth
# [3] = Mycobacterium tuberculosis, M. tuberculosis H37Rv, MABA, lowest concentration with complete inhibition of growth, read-out: MIC
# [4] = Mycobacterium tuberculosis, supplement page S73 correlation table, read-out: MIC
# [5] = Mycobacterium tuberculosis, supplement page S72, standard drugs, read-out: MIC
Compound,"MIC [1, 2]",cytotoxicity (percentage inhibition of cells) (RAW 264.7 cells),melting point,"MIC [1, 3]","MIC [1, 4]",times more active than the standard drug ethambutol ([1]; ratio of MIC values),"MIC [1, 5]"
"2-((1H-1,2,3-triazol-1-yl)methyl)-4H-chromen-4-one [6t]",50 µg/mL,30.12%,–,–,–,–,–
"3-((4-(4-propylphenyl)-1H-1,2,3-triazol-1-yl)methyl)-4H-chromen-4-one [6d]",50 µg/mL,20.60%,–,–,–,–,–
"O=c1c(Cn2cc(-c3ccccc3)nn2)coc2ccccc12 [6a, 3-((4-phenyl-1H-1,2,3-triazol-1-yl)methyl)-4H-chromen-4-one]",–,12.86%,154 to 155 °C,25 µg/mL,–,–,–
"Cc1ccc(-c2cn(Cc3coc4ccccc4c3=O)nn2)cc1 [6b, 3-((4-(p-tolyl)-1H-1,2,3-triazol-1-yl)methyl)-4H-chromen-4-one]",–,26.82%,170 to 172 °C,25 µg/mL,–,–,–
"CCc1ccc(-c2cn(Cc3coc4ccccc4c3=O)nn2)cc1 [6c, 3-((4-(4-ethylphenyl)-1H-1,2,3-triazol-1-yl)methyl)-4H-chromen-4-one]",–,16.12%,–,25 µg/mL,–,–,–
"CCCCCc1ccc(-c2cn(Cc3coc4ccccc4c3=O)nn2)cc1 [6e, 3-((4-(4-pentylphenyl)-1H-1,2,3-triazol-1-yl)methyl)-4H-chromen-4-one]",–,20.12%,147 to 148 °C,25 µg/mL,–,–,–
"CC(C)(C)c1ccc(-c2cn(Cc3coc4ccccc4c3=O)nn2)cc1 [6f, 3-((4-(4-(tert-butyl)phenyl)-1H-1,2,3-triazol-1-yl)methyl)-4H-chromen-4-one]",3.125 µg/mL,20.12%,218 to 219 °C,–,3.12 µg/mL,–,–
"COc1ccc(-c2cn(Cc3coc4ccccc4c3=O)nn2)cc1 [6g, 3-((4-(4-methoxyphenyl)-1H-1,2,3-triazol-1-yl)methyl)-4H-chromen-4-one]",6.25 µg/mL,28.40%,170 to 171 °C,–,6.25 µg/mL,–,–
"CCCCCOc1ccc(-c2cn(Cc3coc4ccccc4c3=O)nn2)cc1 [6h, 3-((4-(4-(pentyloxy)phenyl)-1H-1,2,3-triazol-1-yl)methyl)-4H-chromen-4-one]",3.125 µg/mL,18.68%,154 to 155 °C,–,3.12 µg/mL,–,–
"Cc1cccc(-c2cn(Cc3coc4ccccc4c3=O)nn2)c1 [6i, 3-((4-(m-tolyl)-1H-1,2,3-triazol-1-yl)methyl)-4H-chromen-4-one]",–,26.82%,124 to 125 °C,25 µg/mL,–,–,–
"COc1ccc(-c2cn(Cc3coc4ccccc4c3=O)nn2)c(C)c1 [6j, 3-((4-(4-methoxy-2-methylphenyl)-1H-1,2,3-triazol-1-yl)methyl)-4H-chromen-4-one]",–,30.34%,172 to 173 °C,50 µg/mL,–,–,–
"O=c1c(Cn2cc(-c3cccc4ccccc34)nn2)coc2ccccc12 [6k, 3-((4-(naphthalen-1-yl)-1H-1,2,3-triazol-1-yl)methyl)-4H-chromen-4-one]",–,26.12%,154 to 155 °C,50 µg/mL,–,–,–
"O=c1c(Cn2cc(-c3ccccn3)nn2)coc2ccccc12 [6l, 3-((4-(pyridin-2-yl)-1H-1,2,3-triazol-1-yl)methyl)-4H-chromen-4-one]",–,30.60%,175 to 176 °C,50 µg/mL,–,–,–
"CCCCc1cn(Cc2coc3ccccc3c2=O)nn1 [6m, 3-((4-butyl-1H-1,2,3-triazol-1-yl)methyl)-4H-chromen-4-one]",6.25 µg/mL,36.82%,87 to 88 °C,–,6.25 µg/mL,–,–
"CCCCCCc1cn(Cc2coc3ccccc3c2=O)nn1 [6n, 3-((4-hexyl-1H-1,2,3-triazol-1-yl)methyl)-4H-chromen-4-one]",–,23.74%,84 to 85 °C,50 µg/mL,–,–,–
"O=c1c(Cn2cc(C3CCCC3)nn2)coc2ccccc12 [6o, 3-((4-cyclopentyl-1H-1,2,3-triazol-1-yl)methyl)-4H-chromen-4-one]",3.125 µg/mL,18.42%,157 to 158 °C,–,3.12 µg/mL,–,–
"O=c1c(Cn2cc(C3CCCCC3)nn2)coc2ccccc12 [6p, 3-((4-cyclohexyl-1H-1,2,3-triazol-1-yl)methyl)-4H-chromen-4-one]",12.5 µg/mL,20.12%,145 to 146 °C,–,12.5 µg/mL,–,–
"O=c1c(Cn2cc(CC3CCCCC3)nn2)coc2ccccc12 [6q, 3-((4-(cyclohexylmethyl)-1H-1,2,3-triazol-1-yl)methyl)-4H-chromen-4-one]",–,28.62%,133 to 134 °C,25 µg/mL,–,–,–
"O=c1c(Cn2cc(C3(O)c4ccccc4-c4ccccc43)nn2)coc2ccccc12 [6r, 3-((4-(9-hydroxy-9H-fluoren-9-yl)-1H-1,2,3-triazol-1-yl)methyl)-4H-chromen-4-one]",–,30.60%,239 to 240 °C,50 µg/mL,–,–,–
"O=c1c(Cn2cc(CCCCCCCCCCCCCCCO)nn2)coc2ccccc12 [6s, 3-((4-(15-hydroxypentadecyl)-1H-1,2,3-triazol-1-yl)methyl)-4H-chromen-4-one]",1.56 µg/mL,24.68%,123 to 124 °C,–,1.56 µg/mL,4.8 times,–
"CO[C@H]1/C=C/O[C@@]2(C)Oc3c(C)c(O)c4c(O)c(c(/C=N/N5CCN(C)CC5)c(O)c4c3C2=O)NC(=O)/C(C)=C\C=C\[C@H](C)[C@H](O)[C@@H](C)[C@@H](O)[C@@H](C)[C@H](OC(C)=O)[C@@H]1C [Rifampicin, rifampicin, reference compound]",–,–,–,0.24 µg/mL,–,–,0.24 µM
"CC[C@@H](CO)NCCN[C@@H](CC)CO [ethambutol, reference compound]",–,–,–,7.64 µg/mL,–,–,7.64 µM
